The source of these data is PubChem BioAssay AID256 (DTP/NCI, 2004).

The assay relates to CD2F1 mice, L1210 leukemia ip, survival T/C. The experiment in a line: NCI In Vivo Anticancer Drug Screen. Data for tumor model L1210 Leukemia (intraperitoneal) in CD2F1 (CDF1) mice. To be noted: higher = longer survival. A digest of the protocol:
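Read-out first: treated-group measurement over vehicle-control measurement, expressed as a ratio. Animals bore a transplanted tumor line and were dosed with compound or vehicle.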

Setting [1] is: endpoint: mean survival time, dose: 100.0 mg/kg/injection, schedule: Q04DX003 (ip), vehicle: saline with Tween-80.
Setting [2] is: endpoint: mean survival time, dose: 200.0 mg/kg/injection, schedule: Q04DX003 (ip), vehicle: saline with Tween-80.
[3] abbreviates: endpoint: mean survival time, dose: 400.0 mg/kg/injection, schedule: Q04DX003 (ip), vehicle: saline with Tween-80.
Setting [4] is: endpoint: mean survival time, dose: 100.0 mg/kg/injection, schedule: Q04DX002 (ip), vehicle: saline.
The mark [5] stands for this setting: endpoint: mean survival time, dose: 100.0 mg/kg/injection, schedule: Q01DX009 (ip), vehicle: saline with Tween-80.
[6] abbreviates: endpoint: mean survival time, dose: 200.0 mg/kg/injection, schedule: Q01DX009 (ip), vehicle: saline with Tween-80.
The mark [7] stands for this setting: endpoint: mean survival time, dose: 400.0 mg/kg/injection, schedule: Q01DX009 (ip), vehicle: saline with Tween-80.
The mark [8] stands for this setting: endpoint: mean survival time, dose: 100.0 mg/kg/injection, schedule: Q01DX001 (ip), vehicle: saline.
The mark [9] stands for this setting: endpoint: mean survival time, dose: 200.0 mg/kg/injection, schedule: Q01DX001 (ip), vehicle: saline.
Setting [10] is: endpoint: mean survival time, dose: 100.0 mg/kg/injection, schedule: Q01DX001 (ip), vehicle: saline with Tween-80.
Setting [11] is: endpoint: mean survival time, dose: 200.0 mg/kg/injection, schedule: Q01DX001 (ip), vehicle: saline with Tween-80.
The mark [12] stands for this setting: endpoint: mean survival time, dose: 400.0 mg/kg/injection, schedule: Q01DX001 (ip), vehicle: saline with Tween-80.

Values joined by “and” are separate entries in the source; they are usually repeats but may differ in a detail not shown here. Identical values can stand only once. Inconclusive results and toxic doses are left out.

Regarding `Cc1ccn(C)c(=N)c1`, the T/C by setting is: (endpoint: mean survival time, dose: 100.0 mg/kg/injection, schedule: Q01DX009 (ip), vehicle: saline sonified) 97 % of control; under setting [1], 94 % of control; (endpoint: mean survival time, dose: 200.0 mg/kg/injection, schedule: Q01DX009 (ip), vehicle: saline sonified) 98 % of control; under setting [2], 93 % of control; under setting [3], 93 % of control.
For `N=C(CN1CCCCC1)N1CCCCC1`, the T/C reads like this: (endpoint: mean survival time, dose: 25.0 mg/kg/injection, schedule: Q04DX002 (ip), vehicle: saline) 104 % of control; (endpoint: mean survival time, dose: 50.0 mg/kg/injection, schedule: Q04DX002 (ip), vehicle: saline) 101 % of control; under setting [4], 112 % of control.
In the case of `CCCCCCCCCCCCCCBr`, the T/C (endpoint: mean survival time, dose: 50.0 mg/kg/injection, schedule: Q01DX009 (ip), vehicle: saline with Tween-80) was 96 % of control; the T/C under setting [5] was 103 % of control; the T/C under setting [6] is 96 % of control.
Take `O=S(=O)(F)c1ccccc1`: the T/C (endpoint: mean survival time, dose: 25.0 mg/kg/injection, schedule: Q04DX003 (ip), vehicle: saline with Tween-80) is 95 % of control; the T/C (endpoint: mean survival time, dose: 50.0 mg/kg/injection, schedule: Q04DX003 (ip), vehicle: saline with Tween-80) is 100 % of control; the T/C under setting [1] was 95 % of control and 97 % of control.
Take `O=C(NC1CCc2ccccc21)c1ccccc1` (stereo not drawn): the T/C is 96 % of control under setting [1], 94 % of control under setting [2], 87 % of control under setting [7] and 97 % of control under setting [3].
Consider `CCOC(=O)C(F)(C(=O)OCC)[N+](=O)[O-]`, for which the T/C was 102 % of control (endpoint: mean survival time, dose: 50.0 mg/kg/injection, schedule: Q04DX003 (ip), vehicle: saline); 101 % of control under setting [8]; 100 % of control (endpoint: mean survival time, dose: 100.0 mg/kg/injection, schedule: Q04DX003 (ip), vehicle: saline); 104 % of control under setting [9]; 88 % of control (endpoint: mean survival time, dose: 200.0 mg/kg/injection, schedule: Q04DX003 (ip), vehicle: saline).
Turning to `CC1(COCCOCC2(C)CO2)CO1` (stereo not drawn), the T/C reads like this: (endpoint: mean survival time, dose: 100.0 mg/kg/injection, schedule: Q01DX009 (ip), vehicle: saline) 111 % of control; (endpoint: mean survival time, dose: 200.0 mg/kg/injection, schedule: Q01DX009 (ip), vehicle: saline) 114 % of control; (endpoint: mean survival time, dose: 264.0 mg/kg/injection, schedule: Q04DX003 (ip), vehicle: saline) 116 % of control; (endpoint: mean survival time, dose: 400.0 mg/kg/injection, schedule: Q04DX003 (ip), vehicle: saline) 113 % of control; (endpoint: mean survival time, dose: 600.0 mg/kg/injection, schedule: Q04DX003 (ip), vehicle: saline) 121 % of control.
As for `C(=NCc1ccccc1)c1ccccc1-c1ccccc1C=NCc1ccccc1`, the T/C is, setting by setting: under setting [1], 97 % of control; under setting [2], 107 % of control; under setting [3], 106 % of control.
For `CN(C)C1C(=O)C(C(=O)NP(=O)(NCCCO)N(CCCl)CCCl)=C(O)C2(O)C(=O)C3=C(O)c4c(O)cccc4C(C)(O)C3CC12` (stereo not drawn), the T/C (endpoint: mean survival time, dose: 1.56 mg/kg/injection, schedule: Q01DX001 (ip), vehicle: saline with Tween-80) is 102 % of control; the T/C (endpoint: mean survival time, dose: 3.12 mg/kg/injection, schedule: Q01DX001 (ip), vehicle: saline with Tween-80) was 96 % of control; the T/C (endpoint: mean survival time, dose: 15.62 mg/kg/injection, schedule: Q01DX001 (ip), vehicle: saline with Tween-80) is 104 % of control; the T/C (endpoint: mean survival time, dose: 31.25 mg/kg/injection, schedule: Q01DX001 (ip), vehicle: saline with Tween-80) is 100 % of control; the T/C (endpoint: mean survival time, dose: 62.5 mg/kg/injection, schedule: Q01DX001 (ip), vehicle: saline with Tween-80) was 100 % of control and 106 % of control; the T/C (endpoint: mean survival time, dose: 125.0 mg/kg/injection, schedule: Q01DX001 (ip), vehicle: saline with Tween-80) is 124 % of control and 100 % of control. Moreover, the T/C is 122 % of control and 110 % of control (endpoint: mean survival time, dose: 250.0 mg/kg/injection, schedule: Q01DX001 (ip), vehicle: saline with Tween-80); 156 % of control (endpoint: mean survival time, dose: 500.0 mg/kg/injection, schedule: Q01DX001 (ip), vehicle: saline with Tween-80); 110 % of control (endpoint: median survival time, dose: 25.0 mg/kg/injection, schedule: Q01DX009 (ip), vehicle: saline with Tween-80); 118 % of control (endpoint: median survival time, dose: 50.0 mg/kg/injection, schedule: Q01DX009 (ip), vehicle: saline with Tween-80); 157 % of control (endpoint: median survival time, dose: 100.0 mg/kg/injection, schedule: Q01DX009 (ip), vehicle: saline with Tween-80); 201 % of control and 202 % of control (endpoint: median survival time, dose: 200.0 mg/kg/injection, schedule: Q01DX009 (ip), vehicle: saline with Tween-80). In addition, the T/C (endpoint: median survival time, dose: 400.0 mg/kg/injection, schedule: Q01DX009 (ip), vehicle: saline with Tween-80) is 116 % of control.
Regarding `CN1CCc2c(c3ccccc3c3ccccc23)C1`, the T/C is, setting by setting: (endpoint: mean survival time, dose: 3.12 mg/kg/injection, schedule: Q01DX009 (ip), vehicle: Klucel (hydroxypropylcellulose) (HPC)) 104 % of control; (endpoint: mean survival time, dose: 6.25 mg/kg/injection, schedule: Q01DX009 (ip), vehicle: Klucel (hydroxypropylcellulose) (HPC)) 101 % of control; (endpoint: mean survival time, dose: 12.5 mg/kg/injection, schedule: Q01DX009 (ip), vehicle: Klucel (hydroxypropylcellulose) (HPC)) 97 % of control; (endpoint: mean survival time, dose: 25.0 mg/kg/injection, schedule: Q01DX009 (ip), vehicle: Klucel (hydroxypropylcellulose) (HPC)) 95 % of control; (endpoint: mean survival time, dose: 50.0 mg/kg/injection, schedule: Q01DX009 (ip), vehicle: Klucel (hydroxypropylcellulose) (HPC)) 106 % of control; (endpoint: mean survival time, dose: 100.0 mg/kg/injection, schedule: Q01DX009 (ip), vehicle: Klucel (hydroxypropylcellulose) (HPC)) 113 % of control.
For the compound `CN1C=CC(C(C(N)=O)c2ccccc2)c2ccccc21` (stereo not drawn), the T/C was 96 % of control under setting [1], 102 % of control under setting [2] and 97 % of control under setting [3].
Regarding `COc1cc(Cl)cc(OC)c1`, the T/C is, setting by setting: under setting [5], 100 % of control; under setting [6], 104 % of control; under setting [7], 103 % of control.
As to `O=C(O)c1ccc([N+](=O)[O-])cc1C(=O)O.[NH-]C1CCCCC1[NH-].[Pt+2]`, the T/C is, setting by setting: (endpoint: median survival time, dose: 3.12 mg/kg/injection, schedule: Q04DX003 (ip), vehicle: saline) 100 % of control and 110 % of control; (endpoint: median survival time, dose: 6.25 mg/kg/injection, schedule: Q04DX003 (ip), vehicle: saline) 121 % of control and 110 % of control; (endpoint: median survival time, dose: 12.5 mg/kg/injection, schedule: Q04DX003 (ip), vehicle: saline) 116 % of control; (endpoint: median survival time, dose: 50.0 mg/kg/injection, schedule: Q04DX003 (ip), vehicle: saline) 176 % of control; (endpoint: median survival time, dose: 100.0 mg/kg/injection, schedule: Q04DX003 (ip), vehicle: saline) 183 % of control and 282 % of control; (endpoint: median survival time, dose: 200.0 mg/kg/injection, schedule: Q04DX003 (ip), vehicle: saline) 97 % of control.
In the case of `CC1CC=CCC1/C=N\Nc1ccc([N+](=O)[O-])cc1[N+](=O)[O-]` (stereo not drawn), the T/C reads like this: under setting [1], 98 % of control; under setting [2], 94 % of control; under setting [3], 100 % of control.
For the compound `CNC(=O)Oc1cccc(NC(=O)OCCCCl)c1`, the T/C under setting [10] is 100 % of control, the T/C under setting [11] was 105 % of control and the T/C under setting [12] is 105 % of control.
Turning to `CC(=O)CCCOC(C)=O`, the T/C was 103 % of control under setting [8]; 100 % of control under setting [9]; 100 % of control (endpoint: mean survival time, dose: 400.0 mg/kg/injection, schedule: Q01DX001 (ip), vehicle: saline).
Turning to `COC1OC(C)CC(C)(C)O1` (stereo not drawn), the T/C by setting is: under setting [4], 89 % of control; (endpoint: mean survival time, dose: 200.0 mg/kg/injection, schedule: Q04DX002 (ip), vehicle: saline) 96 % of control; (endpoint: mean survival time, dose: 400.0 mg/kg/injection, schedule: Q04DX002 (ip), vehicle: saline) 100 % of control.
On to `Cc1nccc(N)n1`, for which the T/C is 89 % of control under setting [10], 90 % of control under setting [11] and 90 % of control under setting [12].
For `O/N=C\c1cccc2ccccc12`, the T/C is, setting by setting: under setting [1], 97 % of control; under setting [2], 101 % of control.
As to `O=C(NC(Cc1ccc(I)cc1)C(=O)O)c1cccc(Br)c1` (stereo not drawn), the T/C is 105 % of control (endpoint: median survival time, dose: 25.0 mg/kg/injection, schedule: Q01DX009 (ip), vehicle: Klucel (hydroxypropylcellulose) (HPC)); 97 % of control (endpoint: median survival time, dose: 50.0 mg/kg/injection, schedule: Q01DX009 (ip), vehicle: Klucel (hydroxypropylcellulose) (HPC)); 94 % of control (endpoint: median survival time, dose: 100.0 mg/kg/injection, schedule: Q01DX009 (ip), vehicle: Klucel (hydroxypropylcellulose) (HPC)); 94 % of control (endpoint: median survival time, dose: 200.0 mg/kg/injection, schedule: Q01DX009 (ip), vehicle: Klucel (hydroxypropylcellulose) (HPC)).
